From patent US10174035B2, “6-morpholinyl-2-pyrazolyl-9H-purine derivatives and their use as PI3K inhibitors” (Daiichi Sankyo Company, Limited, priority 2015, dated 2019) come the findings set out here.

SMILES strings stand for the structures. pIC50: −log10 of the molar value. Where two headings read alike, the source gives them in different places. A value given as a limit tells only on which side of the number the result lay.

Experiment [1] has as its target PI3Kγ (Homo sapiens (Human), UniProt P48736). Description: In vitro enzyme assay (Kinase-Glo), selectivity, PI3Kγ. Type of experiment: biochemical. As to conditions: enzyme 2.29 μg/mL; ATP 10 μM; PIP2 60 μM; 2 hours. As to the method:
The Kinase-Glo luminescent kinase assay kit (from Promega) was used to measure kinase activity. In this assay, amount of ATP remaining in solution following a kinase reaction is measured. […] The reaction mixture was incubated for 2 hours at room temperature. At the end of incubation period the equal volume of Kinase-Glo plus (Promega, V3772), was added per well and the luminescence was measured after incubating for 10 minutes at room temperature in dark. Results were calculated by measuring the luminescence units of test samples to blanks containing no enzyme.
The compounds of the present invention were tested for their selectivity for PI3Kδ over PI3Kα, PI3Kβ and PI3Kγ following the above assay using specific recombinant enzymes (Proteros, Germany) for each kinase. Assay condition of kinase assay (PI3Kα, PI3Kβ, PI3Kγ and PI3Kδ) was as follows.

The target in experiment [2] is PI3Kβ (Homo sapiens (Human), UniProt P42338). In words: In vitro enzyme assay (Kinase-Glo), selectivity, PI3Kβ. Type of experiment: biochemical. As to conditions: enzyme 2.29 μg/mL; ATP 10 μM; PIP2 60 μM; 2 hours. As to the method: (§1) The Kinase-Glo luminescent kinase assay kit (from Promega) was used to measure kinase activity. In this assay, amount of ATP remaining in solution following a kinase reaction is measured. The effect of compounds on PI3Kδ inhibition was carried out by adding 2.29 μg/ml of recombinant PI3K δ enzyme (Proteros, Germany) to reaction mixture containing assay buffer (50 mM HEPES, pH 7.4, 50 mM NaCl, 0.05% CHAPS) supplemented with 10 mM MgCl2, 5 mM DTT, 60 μM Phosphatidyl inositol bisphosphate (PIP2) and 10 μM ATP in the absence or presence of different concentrations of the compounds in a final volume of 15 μl/well, in a 384 well plate. The reaction mixture was incubated for 2 hours at room temperature. At the end of incubation period the equal volume of Kinase-Glo plus (Promega, V3772), was added per well and the luminescence was measured after incubating for 10 minutes at room temperature in dark. Results were calculated by measuring the luminescence units of test samples to blanks containing no enzyme.
Chain of PI3Kβ (P42338 whole entry, species assumed): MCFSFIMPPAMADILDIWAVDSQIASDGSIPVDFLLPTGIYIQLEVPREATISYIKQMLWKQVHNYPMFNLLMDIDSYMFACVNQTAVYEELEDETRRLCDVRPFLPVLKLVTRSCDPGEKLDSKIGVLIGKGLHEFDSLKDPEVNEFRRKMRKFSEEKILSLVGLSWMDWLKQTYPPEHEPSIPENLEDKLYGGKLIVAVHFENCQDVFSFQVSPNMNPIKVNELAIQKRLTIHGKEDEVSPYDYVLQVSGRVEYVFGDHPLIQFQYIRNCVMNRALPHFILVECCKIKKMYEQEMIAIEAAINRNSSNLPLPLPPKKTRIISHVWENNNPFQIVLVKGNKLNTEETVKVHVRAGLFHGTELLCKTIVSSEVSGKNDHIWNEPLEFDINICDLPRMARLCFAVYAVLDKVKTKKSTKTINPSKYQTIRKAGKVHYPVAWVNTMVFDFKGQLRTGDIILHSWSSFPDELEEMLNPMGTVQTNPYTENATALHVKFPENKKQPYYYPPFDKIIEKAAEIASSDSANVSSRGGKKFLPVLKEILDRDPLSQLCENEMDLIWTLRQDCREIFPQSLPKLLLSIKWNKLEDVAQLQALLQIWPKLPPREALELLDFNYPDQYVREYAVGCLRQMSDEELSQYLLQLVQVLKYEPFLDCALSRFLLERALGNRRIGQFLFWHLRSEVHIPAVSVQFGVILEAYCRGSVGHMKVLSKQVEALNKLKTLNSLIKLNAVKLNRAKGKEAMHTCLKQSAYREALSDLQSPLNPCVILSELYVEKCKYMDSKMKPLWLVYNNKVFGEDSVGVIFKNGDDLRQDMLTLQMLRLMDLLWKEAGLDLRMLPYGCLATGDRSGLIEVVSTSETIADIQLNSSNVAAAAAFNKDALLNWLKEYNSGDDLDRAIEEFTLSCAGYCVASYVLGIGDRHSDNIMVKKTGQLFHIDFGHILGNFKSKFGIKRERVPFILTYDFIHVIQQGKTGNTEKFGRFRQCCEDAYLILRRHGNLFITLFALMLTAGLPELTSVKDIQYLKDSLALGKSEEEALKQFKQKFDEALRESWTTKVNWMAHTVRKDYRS
Chain of PI3Kβ (P27986 whole entry partner, species assumed): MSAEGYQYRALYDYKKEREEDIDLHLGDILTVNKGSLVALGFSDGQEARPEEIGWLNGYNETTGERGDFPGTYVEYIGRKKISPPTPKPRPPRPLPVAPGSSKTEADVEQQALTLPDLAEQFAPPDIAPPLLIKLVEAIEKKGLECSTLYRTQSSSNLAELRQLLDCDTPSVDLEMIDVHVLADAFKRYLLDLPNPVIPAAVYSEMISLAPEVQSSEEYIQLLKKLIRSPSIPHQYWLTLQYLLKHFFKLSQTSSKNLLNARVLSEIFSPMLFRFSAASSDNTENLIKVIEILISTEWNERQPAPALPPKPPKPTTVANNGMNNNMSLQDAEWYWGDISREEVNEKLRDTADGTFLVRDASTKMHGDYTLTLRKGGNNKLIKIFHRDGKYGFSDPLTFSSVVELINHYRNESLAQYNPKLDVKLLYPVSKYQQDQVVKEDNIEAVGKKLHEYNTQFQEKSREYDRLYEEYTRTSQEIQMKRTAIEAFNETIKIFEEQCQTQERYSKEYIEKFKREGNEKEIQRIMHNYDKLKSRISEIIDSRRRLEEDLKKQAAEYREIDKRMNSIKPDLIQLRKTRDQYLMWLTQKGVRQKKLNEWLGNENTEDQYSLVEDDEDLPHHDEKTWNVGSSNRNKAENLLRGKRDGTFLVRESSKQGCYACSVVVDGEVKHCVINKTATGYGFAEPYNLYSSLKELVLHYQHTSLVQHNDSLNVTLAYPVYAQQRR
(§2) The compounds of the present invention were tested for their selectivity for PI3Kδ over PI3Kα, PI3Kβ and PI3Kγ following the above assay using specific recombinant enzymes (Proteros, Germany) for each kinase. Assay condition of kinase assay (PI3Kα, PI3Kβ, PI3Kγ and PI3Kδ) was as follows. Enzyme: 2.29 μg/mL; ATP: 10 μM; PIP2 substrate: 60 μM and Reaction Time: 2 hours.
For orientation: Kinase-Glo reads ATP consumption through a luciferase reaction.

For experiment [3], the system named is IFN-γ release in mouse splenocytes. In words: Phytohaemagglutinin (PHA)-induced interferon (IFN)-gamma release in mouse splenocytes. The note with it: Splenocyte, PHA (10 μg/ml) for 48 hours, IFN-γ by ELISA, read-out: Cell Based IC50. Set-up: species or system C57BL/6 mouse. As to the method: Effect of compounds on mitogen-induced IFN-γ release in mouse splenocytes was used to evaluate their potency in cell-based assay system [Blood (2010) 115: 2203-2213; Current Protocols in Immunology (2004) 3.12.1-3.12.20].
Mouse splenocytes were obtained from the spleen of a C57BL/6 mouse and plated at a density of 0.25 million cells/well in a 96 well tissue culture plate. The effect of the compounds to inhibit IFN-γ release was evaluated by treating the splenocytes with various concentrations of the test compounds followed by stimulation with PHA (10 μg/ml) for 48 hours. The IFN-γ release in the cell culture supernatant was quantified by ELISA as per the manufacturer's protocol (BD Biosciences, #555138).

In experiment [4] the target is PI3Kα (Homo sapiens (Human), UniProt P42336). In words: In vitro enzyme assay (Kinase-Glo), selectivity, PI3Kα. In kind it is biochemical. As to conditions: enzyme 2.29 μg/mL; ATP 10 μM; PIP2 60 μM; 2 hours. As to the method:
as §1, §2

Experiment [5] addresses recombinant PI3K δ enzyme (Homo sapiens (Human), UniProt O00329). In words: In vitro enzyme assay (Kinase-Glo luminescent kinase assay), PI3Kδ. Type of experiment: biochemical. The procedure, abridged:
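Each recombinant human PI3K isoform at 2.29 μg/mL with 60 μM PIP2 and 10 μM ATP in HEPES pH 7.4, NaCl, CHAPS, MgCl2, DTT, 2 hours at room temperature. Remaining ATP read by Kinase-Glo luminescence relative to no-enzyme blanks.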

[6] abbreviates: enzyme 2.29 μg/mL, ATP 10 μM, PIP2 60 μM, 2 hours.

Chain of PI3Kγ (P48736 whole entry, species assumed): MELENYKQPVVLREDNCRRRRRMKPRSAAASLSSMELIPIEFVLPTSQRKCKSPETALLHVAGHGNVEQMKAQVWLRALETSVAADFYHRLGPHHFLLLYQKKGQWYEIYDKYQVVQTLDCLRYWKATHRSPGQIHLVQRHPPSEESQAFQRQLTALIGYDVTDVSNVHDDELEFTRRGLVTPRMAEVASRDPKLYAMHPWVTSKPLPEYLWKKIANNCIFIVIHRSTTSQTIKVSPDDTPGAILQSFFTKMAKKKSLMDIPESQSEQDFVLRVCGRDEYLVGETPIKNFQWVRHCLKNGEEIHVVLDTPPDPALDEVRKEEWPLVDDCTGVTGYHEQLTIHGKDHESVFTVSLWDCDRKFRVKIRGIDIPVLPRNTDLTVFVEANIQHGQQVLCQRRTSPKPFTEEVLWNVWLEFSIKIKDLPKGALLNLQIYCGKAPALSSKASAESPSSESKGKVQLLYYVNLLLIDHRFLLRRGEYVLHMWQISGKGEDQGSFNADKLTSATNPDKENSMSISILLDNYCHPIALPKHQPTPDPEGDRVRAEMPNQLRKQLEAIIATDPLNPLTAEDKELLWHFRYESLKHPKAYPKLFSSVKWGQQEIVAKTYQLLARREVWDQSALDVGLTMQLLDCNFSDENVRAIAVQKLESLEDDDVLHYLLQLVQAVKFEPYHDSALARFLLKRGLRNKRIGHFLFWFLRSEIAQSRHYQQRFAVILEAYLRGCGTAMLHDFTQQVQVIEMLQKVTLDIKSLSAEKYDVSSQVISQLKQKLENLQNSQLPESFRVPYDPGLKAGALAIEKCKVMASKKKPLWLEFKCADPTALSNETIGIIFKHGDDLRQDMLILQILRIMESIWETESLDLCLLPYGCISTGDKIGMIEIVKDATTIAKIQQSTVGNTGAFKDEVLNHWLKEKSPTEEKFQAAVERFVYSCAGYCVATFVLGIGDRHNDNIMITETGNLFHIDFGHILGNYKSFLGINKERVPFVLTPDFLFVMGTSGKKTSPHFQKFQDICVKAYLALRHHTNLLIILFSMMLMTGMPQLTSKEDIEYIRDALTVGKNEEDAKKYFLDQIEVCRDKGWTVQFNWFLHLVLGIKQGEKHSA
Chain of PI3Kα (P42336 whole entry, species assumed): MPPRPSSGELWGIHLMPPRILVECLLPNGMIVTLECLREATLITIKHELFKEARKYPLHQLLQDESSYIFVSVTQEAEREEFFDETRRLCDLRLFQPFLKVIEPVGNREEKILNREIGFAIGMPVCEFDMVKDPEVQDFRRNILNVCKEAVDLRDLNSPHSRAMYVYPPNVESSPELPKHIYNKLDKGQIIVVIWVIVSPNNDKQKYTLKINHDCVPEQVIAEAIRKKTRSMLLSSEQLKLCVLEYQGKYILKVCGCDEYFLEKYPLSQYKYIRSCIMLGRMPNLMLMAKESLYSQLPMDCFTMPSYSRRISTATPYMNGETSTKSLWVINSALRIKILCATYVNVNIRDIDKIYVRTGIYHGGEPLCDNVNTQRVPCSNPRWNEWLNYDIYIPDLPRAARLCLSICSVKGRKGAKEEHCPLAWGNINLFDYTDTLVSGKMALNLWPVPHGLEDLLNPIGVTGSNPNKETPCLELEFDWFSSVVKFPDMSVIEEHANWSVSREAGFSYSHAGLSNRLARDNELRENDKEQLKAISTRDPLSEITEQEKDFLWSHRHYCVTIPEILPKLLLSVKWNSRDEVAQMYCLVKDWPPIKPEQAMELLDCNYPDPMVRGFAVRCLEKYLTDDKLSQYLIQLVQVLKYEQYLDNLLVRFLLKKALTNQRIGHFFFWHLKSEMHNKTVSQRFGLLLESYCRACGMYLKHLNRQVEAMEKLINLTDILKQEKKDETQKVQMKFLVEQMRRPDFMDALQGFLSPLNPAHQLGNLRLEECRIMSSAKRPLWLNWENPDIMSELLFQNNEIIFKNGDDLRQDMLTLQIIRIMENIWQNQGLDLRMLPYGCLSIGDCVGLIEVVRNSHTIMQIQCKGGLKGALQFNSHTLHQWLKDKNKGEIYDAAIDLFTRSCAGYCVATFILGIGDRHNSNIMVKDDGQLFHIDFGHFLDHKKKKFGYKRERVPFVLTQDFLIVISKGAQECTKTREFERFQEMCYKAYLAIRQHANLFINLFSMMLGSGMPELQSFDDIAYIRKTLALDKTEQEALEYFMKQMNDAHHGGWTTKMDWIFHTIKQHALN
Chain of PI3Kα (P27986 whole entry partner, species assumed): as the sequence (P27986 whole entry partner, species assumed) above
Chain of recombinant PI3K δ enzyme (O00329 whole entry, species assumed, canonical isoform): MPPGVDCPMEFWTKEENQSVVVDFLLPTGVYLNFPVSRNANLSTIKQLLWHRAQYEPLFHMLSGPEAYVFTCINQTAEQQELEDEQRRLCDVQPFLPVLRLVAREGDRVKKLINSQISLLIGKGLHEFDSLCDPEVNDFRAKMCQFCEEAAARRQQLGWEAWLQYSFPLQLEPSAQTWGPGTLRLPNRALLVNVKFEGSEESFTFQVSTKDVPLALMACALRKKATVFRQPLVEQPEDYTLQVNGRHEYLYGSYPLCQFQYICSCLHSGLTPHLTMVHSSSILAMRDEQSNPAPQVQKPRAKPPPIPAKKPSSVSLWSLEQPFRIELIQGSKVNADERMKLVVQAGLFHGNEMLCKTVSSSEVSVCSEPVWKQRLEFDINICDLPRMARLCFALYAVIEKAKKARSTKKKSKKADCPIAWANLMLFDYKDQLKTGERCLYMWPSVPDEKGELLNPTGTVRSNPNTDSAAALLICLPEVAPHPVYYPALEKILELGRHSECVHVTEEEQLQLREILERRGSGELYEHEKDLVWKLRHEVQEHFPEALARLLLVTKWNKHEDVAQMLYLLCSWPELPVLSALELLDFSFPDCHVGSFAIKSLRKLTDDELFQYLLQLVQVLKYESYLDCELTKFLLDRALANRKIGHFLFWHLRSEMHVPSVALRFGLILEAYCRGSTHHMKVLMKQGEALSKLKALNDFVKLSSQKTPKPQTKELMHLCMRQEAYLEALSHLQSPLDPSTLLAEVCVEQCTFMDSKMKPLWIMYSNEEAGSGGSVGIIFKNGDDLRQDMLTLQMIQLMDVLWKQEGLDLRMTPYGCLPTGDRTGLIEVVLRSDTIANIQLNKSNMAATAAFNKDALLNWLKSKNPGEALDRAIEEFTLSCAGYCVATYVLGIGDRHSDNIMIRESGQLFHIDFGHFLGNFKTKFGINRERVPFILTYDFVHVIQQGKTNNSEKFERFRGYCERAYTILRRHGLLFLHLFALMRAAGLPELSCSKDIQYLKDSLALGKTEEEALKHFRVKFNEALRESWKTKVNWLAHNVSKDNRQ
Chain of recombinant PI3K δ enzyme (P27986 whole entry partner, species assumed, canonical isoform): as the sequence (P27986 whole entry partner, species assumed) above

`Cn1cc(-c2nc(N3CCOCC3)c3nc(C(=O)N4CCC(C(C)(C)O)CC4)[nH]c3n2)cn1` [compound 14, [4-(2-Hydroxypropan-2-yl)piperidin-1-yl][2-(1-methyl-1H-pyrazol-4-yl)-6-(morpholin-4-yl)-9H-purin-8-yl]methanone]: the negative-log IC50 (pIC50) (in general, the negative decadic logarithm of the IC50, by convention in mol/L) in experiment [1] was 6.23; in experiment [2], less than 5.00; in experiment [3] it was 6.09; in experiment [4], less than 6.00; in experiment [5] it was 7.80; in experiment [5] (setting [6]), 7.80.

Consider `O=C(c1nc2c(N3CCOCC3)nc(-c3c[nH]nc3C(F)(F)F)nc2[nH]1)N1CCC(N2CCOCC2)CC1` [compound 19, [4-(Morpholin-4-yl)piperidin-1-yl]{6-(morpholin-4-yl)-2-[3-(trifluoromethyl)-1H-pyrazol-4-yl]-9H-purin-8-yl}methanone], for which the pIC50 was 5.25 in experiment [1]; less than 5.00 in experiment [2]; 6.72 in experiment [3]; 5.39 in experiment [4]; 7.89 in experiment [5]; 7.89 in experiment [5] (setting [6]).

Consider `Cc1nn(C)cc1-c1nc(N2CCOCC2)c2nc(C(=O)N3CCC(N4CCOCC4)CC3)[nH]c2n1` [compound 41, [2-(1,3-Dimethyl-1H-pyrazol-4-yl)-6-(morpholin-4-yl)-9H-purin-8-yl][4-(morpholin-4-yl)piperidin-1-yl]methanone], for which the negative logarithm of the IC50 (pIC50) in experiment [1] was 5.68; in experiment [2], less than 5.00; in experiment [3], 6.65; in experiment [4], 5.05; in experiment [5], 7.85; in experiment [5] (setting [6]) it was 7.85.

As to `CN1CCCC1CCNC(=O)c1nc2c(N3CCOCC3)nc(-c3cnn(C)c3)nc2[nH]1` (centres unmarked) [compound 64, 2-(1-Methyl-1H-pyrazol-4-yl)-N-{2-[1-methylpyrrolidin-2-yl]ethyl}-6-(morpholin-4-yl)-9H-purine-8-carboxamide], the negative-log IC50 (pIC50) is 5.21 in experiment [1]; less than 5.00 in experiment [2]; 6.95 in experiment [3]; 6.01 in experiment [4]; 7.77 in experiment [5]; 7.77 in experiment [5] (setting [6]).

Take `Cn1cc(-c2nc(N3CCOCC3)c3nc(C(=O)NCCCN4CCOCC4)n(C)c3n2)cn1` [compound 67, 9-Methyl-2-(1-methyl-1H-pyrazol-4-yl)-6-(morpholin-4-yl)-N-[3-(morpholin-4-yl)propyl]-9H-purine-8-carboxamide]: the pIC50 in experiment [1] is less than 6.00; in experiment [2] it was less than 5.00; in experiment [3], 7.57; in experiment [4], less than 6.00; in experiment [5], 7.96; in experiment [5] (setting [6]) it was 7.96.

For the compound `Cn1cc(-c2nc(N3CCOCC3)c3nc(C(=O)NCCCN4CCCC4=O)[nH]c3n2)cn1` [compound 68, 2-(1-Methyl-1H-pyrazol-4-yl)-6-(morpholin-4-yl)-N-[3-(2-oxopyrrolidin-1-yl)propyl]-9H-purine-8-carboxamide], the negative-log IC50 (pIC50) in experiment [1] is less than 6.00; in experiment [2] it was less than 5.00; in experiment [3] it was 6.53; in experiment [4], less than 6.00; in experiment [5], 7.77; in experiment [5] (setting [6]) it was 7.77.

As to `O=C(c1nc2c(N3CCOCC3)nc(-c3cn[nH]c3)nc2[nH]1)N1CCC2(CC1)COC2` [compound 72, [6-(Morpholin-4-yl)-2-(1H-pyrazol-4-yl)-9H-purin-8-yl](2-oxa-7-azaspiro[3.5]non-7-yl)methanone], the negative-log IC50 (pIC50) in experiment [1] is less than 6.00; in experiment [2], less than 5.00; in experiment [3] it was 6.48; in experiment [4] it was less than 6.00; in experiment [5] it was 7.74; in experiment [5] (setting [6]), 7.74.

With `C[C@@H]1CN(CCCNC(=O)c2nc3c(N4CCOCC4)nc(-c4cnn(C)c4)nc3[nH]2)C[C@H](C)O1` [compound 75, N-{3-[cis-2,6-dimethylmorpholin-4-yl]propyl}-2-(1-methyl-1H-pyrazol-4-yl)-6-(morpholin-4-yl)-9H-purine-8-carboxamide], the pIC50 is less than 6.00 in experiment [1]; less than 5.00 in experiment [2]; 7.08 in experiment [3]; less than 6.00 in experiment [4]; 7.74 in experiment [5].

As to `Cn1cc(-c2nc3[nH]c(C(=O)N4CCC5(CC4)COC5)nc3c(N3CCOCC3)c2F)cn1` [compound 79, [6-Fluoro-5-(1-methyl-1H-pyrazol-4-yl)-7-(morpholin-4-yl)-3H-imidazo[4,5-b]pyridin-2-yl](2-oxa-7-azaspiro[3.5]non-7-yl)methanone], the negative logarithm of the IC50 (pIC50) in experiment [1] was less than 6.00; in experiment [2], less than 5.00; in experiment [3] it was 7.89; in experiment [4], less than 6.00; in experiment [5] it was 7.70; in experiment [5] (setting [6]) it was 7.70.

With `Cn1cc(-c2nc3[nH]c(C(=O)N4CCN(C(C)(C)C(N)=O)CC4)nc3c(N3CCOCC3)c2F)cn1` [compound 82, 2-(4-{[6-Fluoro-5-(1-methyl-1H-pyrazol-4-yl)-7-(morpholin-4-yl)-3H-imidazo[4,5-b]pyridin-2-yl]carbonyl}piperazin-1-yl)-2-methylpropanamide], the pIC50 in experiment [1] is less than 6.00; in experiment [2], less than 5.00; in experiment [3], 6.46; in experiment [4], less than 6.00; in experiment [5], 7.96; in experiment [5] (setting [6]) it was 7.96.

For `Cc1nn(C)cc1-c1nc2[nH]c(C(=O)N3CCC(C(N)=O)CC3)nc2c(N2CCOCC2)c1F` [compound 85, 1-{[5-(1,3-Dimethyl-1H-pyrazol-4-yl)-6-fluoro-7-(morpholin-4-yl)-3H-imidazo[4,5-b]pyridin-2-yl]carbonyl}piperidine-4-carboxamide], the negative-log IC50 (pIC50) in experiment [1] is less than 6.00; in experiment [2] it was less than 5.00; in experiment [3] it was 5.90; in experiment [4], less than 6.00; in experiment [5], 7.72; in experiment [5] (setting [6]), 7.72.

Turning to `Cc1nn(C)cc1-c1nc2[nH]c(C(=O)N3CCC(O)CC3)nc2c(N2CCOCC2)c1F` [compound 86, [5-(1,3-Dimethyl-1H-pyrazol-4-yl)-6-fluoro-7-(morpholin-4-yl)-3H-imidazo[4,5-b]pyridin-2-yl](4-hydroxypiperidin-1-yl)methanone], the pIC50 in experiment [1] is 5.07; in experiment [2], less than 5.00; in experiment [3], 6.65; in experiment [4], less than 6.00; in experiment [5], 7.57; in experiment [5] (setting [6]), 7.57.

As for `Cn1cc(-c2nc3[nH]c(C(=O)N4CCC(N5CCOCC5)CC4)nc3c(N3CCOCC3)c2F)cn1` [compound 98, [6-Fluoro-5-(1-methyl-1H-pyrazol-4-yl)-7-(morpholin-4-yl)-3H-imidazo[4,5-b]pyridin-2-yl][4-(morpholin-4-yl)piperidin-1-yl]methanone], the negative logarithm of the IC50 (pIC50) is less than 5.00 in experiment [1]; less than 5.00 in experiment [2]; 7.37 in experiment [3]; less than 5.00 in experiment [4]; 8.22 in experiment [5]; 8.22 in experiment [5] (setting [6]).
